From patent US8470370B2, “Controlled release formulations” (Aegis Therapeutics, LLC, priority 2007, dated 2013)

What was measured:
[1] = Solubility of folic acid in water and 0.1 M sodium bicarbonate; type: physicochemical
Description: FIGS. 20 and 21 show several examples of these hydrogels. A-4 is a hydrogel of 2% sucrose stearate/sucrose distearate containing 2.5 mg/ml of folic acid. […] F-4 is a similar hydrogel containing 1 mM curcumin formed from 2% sucrose stearate/sucrose distearate in 0.1M sodium bicarbonate again after heating to 45 degrees C., vortexing to distribute the curcumin and letting the hydrogel form upon cooling to room temperature.

[2] = Curcumin concentration in tetradecylmaltoside hydrogel versus solubility in water; type: physicochemical
Text: Curcumin was also used in the preparation of hydrogels. Curcumin is a natural product isolated from the root of Curcuma longa from which the spice turmeric is obtained. It has been reported to have potent antioxidative, anti-inflammatory and antiseptic properties, but has extremely low solubility in water and poor bioavailability which limits its pharmaceutical use. By encapsulating curcumin in a hydrogel composed of 2% tetradecylmaltoside a concentration of the compound in the gel can be obtained which is about 33,000 times higher than the solubility of curcumin in water, for example, 1×10^−3 M in the hydrogel vs. 3×10^−8 M in water. The resulting gels are yellow or yellow-orange in color depending on whether sodium bicarbonate is present during the formulation of the gel (see FIG. 13). FIG. 13 is a pictorial representation showing hydrogels of curcumin. Sample E-2 is a hydrogel composed of 2% tetradecylmaltoside and 1 mM curcumin. Sample F-2 is a hydrogel composed of 2% tetradecylmaltoside, 1 mM curcumin, and 0.1 M sodium bicarbonate.

solubility of folic acid ([1]; 0.1 M sodium bicarbonate, 2.5 mg/ml for sample B-5) | solubility of folic acid ([1]; water, 2.5 mg/ml for sample A-5) | concentration of curcumin in the hydrogel ([2]; 2% tetradecylmaltoside hydrogel) [µM] | concentration in gel relative to solubility in water ([2]; 2% tetradecylmaltoside hydrogel vs water) | SMILES
completely dissolves | poorly soluble | – | – | Nc1nc2ncc(CNc3ccc(C(=O)N[C@@H](CCC(=O)O)C(=O)O)cc3)nc2c(=O)[nH]1 [Folic acid, folic acid]
– | – | 1000 | about 33,000 times | COc1cc(/C=C/C(=O)CC(=O)/C=C/c2ccc(O)c(OC)c2)ccc1O [curcumin]
